{"source": "PubChem BioAssay AID1259407", "about": "(Chemical Carcinogenesis Research Information System (CCRIS), 2018)", "tested_on": "CCRIS mutagenicity, Ames/micronucleus/aberration tests", "assay": "CCRIS mutagenicity studies", "note": "Active and inactive are the calls of the source. The rule behind the calls is not given here.", "data": [{"smiles": "COc1cc(-c2ccc(N)c(OC)c2)ccc1N", "values": [{"measurement": "mutagenic call", "setting": "End Point: IN VITRO CHROMOSOMAL ABERRATIONS, Test System: CHL CELLS, Metabolic Activation: RAT, LIVER, S-9, SODIUM PHENOBARBITAL AND 5,6-BENZOFLAVONE", "value": "active; positive (structural changes); precipitation of test chemical observed above 0.6"}, {"measurement": "mutagenic call", "setting": "Test System: AMES SALMONELLA TYPHIMURIUM, Strain/Indicator: SV50, Metabolic Activation: NONE, Method: PREINCUBATION (PRIVAL METHOD)", "value": "inactive; negative"}, {"measurement": "mutagenic call", "setting": "Test System: AMES SALMONELLA TYPHIMURIUM, Strain/Indicator: SV50, Metabolic Activation: RAT, LIVER, S-9, AROCLOR 1254, Method: STANDARD PLATE", "value": "inactive; negative"}, {"measurement": "mutagenic call", "setting": "Test System: AMES SALMONELLA TYPHIMURIUM, Strain/Indicator: TA98(1,8-DNP6), Metabolic Activation: NONE, Method: STANDARD PLATE", "value": "inactive; negative"}, {"measurement": "mutagenic call", "setting": "Test System: AMES SALMONELLA TYPHIMURIUM, Strain/Indicator: TA98(1,8-DNP6), Metabolic Activation: S-9, Method: STANDARD PLATE", "value": "active; positive"}, {"measurement": "mutagenic call", "setting": "Test System: AMES SALMONELLA TYPHIMURIUM, Strain/Indicator: TA98, Metabolic Activation: HAMSTER, LIVER, S-9, AROCLOR 1254, Method: PREINCUBATION", "value": "active; positive"}, {"measurement": "mutagenic call", "setting": "Test System: AMES SALMONELLA TYPHIMURIUM, Strain/Indicator: TA98, Metabolic Activation: HAMSTER, LIVER, S-9, Method: PREINCUBATION (PRIVAL METHOD)", "value": "inactive; negative"}, {"measurement": "mutagenic call", "setting": "Test System: AMES SALMONELLA TYPHIMURIUM, Strain/Indicator: TA98, Metabolic Activation: RAT LIVER S-9, AROCLOR 1254, Method: PREINCUBATION", "value": "active; positive"}, {"measurement": "mutagenic call", "setting": "Test System: AMES SALMONELLA TYPHIMURIUM, Strain/Indicator: TA98, Metabolic Activation: RAT LIVER S-9, PHENOBARBITAL AND BETA-NAPHTHOFLAVONE, Method: PREINCUBATION", "value": "active; positive"}, {"measurement": "mutagenic call", "setting": "Test System: AMES SALMONELLA TYPHIMURIUM, Strain/Indicator: TA98, Metabolic Activation: RAT, LIVER, S-9, AROCLOR 1254, Method: PREINCUBATION", "value": "active; positive"}, {"measurement": "mutagenic call", "setting": "Test System: AMES SALMONELLA TYPHIMURIUM, Strain/Indicator: TA98, Metabolic Activation: RAT, LIVER, S-9, AROCLOR 1254, Method: STANDARD PLATE", "value": "active; positive"}, {"measurement": "mutagenic call", "setting": "Test System: AMES SALMONELLA TYPHIMURIUM, Strain/Indicator: TA98, Metabolic Activation: RAT, LIVER, S-9, PCB, Method: PREINCUBATION", "value": "active; positive"}, {"measurement": "mutagenic call", "setting": "Test System: AMES SALMONELLA TYPHIMURIUM, Strain/Indicator: TA98, Metabolic Activation: S-9, Method: STANDARD PLATE", "value": "active; positive"}, {"measurement": "mutagenic call", "setting": "Test System: AMES SALMONELLA TYPHIMURIUM, Strain/Indicator: TA100, Metabolic Activation: HAMSTER, LIVER, S-9, AROCLOR 1254, Method: PREINCUBATION", "value": "inactive; negative"}, {"measurement": "mutagenic call", "setting": "Test System: AMES SALMONELLA TYPHIMURIUM, Strain/Indicator: TA100, Metabolic Activation: NONE, Method: PREINCUBATION", "value": "inactive; negative"}, {"measurement": "mutagenic call", "setting": "Test System: AMES SALMONELLA TYPHIMURIUM, Strain/Indicator: TA100, Metabolic Activation: NONE, Method: STANDARD PLATE", "value": "inactive; negative"}, {"measurement": "mutagenic call", "setting": "Test System: AMES SALMONELLA TYPHIMURIUM, Strain/Indicator: TA100, Metabolic Activation: RAT LIVER S-9, AROCLOR 1254, Method: PREINCUBATION", "value": "active; positive"}, {"measurement": "mutagenic call", "setting": "Test System: AMES SALMONELLA TYPHIMURIUM, Strain/Indicator: TA100, Metabolic Activation: RAT LIVER S-9, PHENOBARBITAL AND BETA-NAPHTHOFLAVONE, Method: PREINCUBATION", "value": "inactive; negative"}, {"measurement": "mutagenic call", "setting": "Test System: AMES SALMONELLA TYPHIMURIUM, Strain/Indicator: TA100, Metabolic Activation: RAT, LIVER, S-9, AROCLOR 1254, Method: PREINCUBATION", "value": "active; positive"}, {"measurement": "mutagenic call", "setting": "Test System: AMES SALMONELLA TYPHIMURIUM, Strain/Indicator: TA100, Metabolic Activation: RAT, LIVER, S-9, PCB, Method: PREINCUBATION", "value": "active; positive"}, {"measurement": "mutagenic call", "setting": "Test System: AMES SALMONELLA TYPHIMURIUM, Strain/Indicator: TA100, Metabolic Activation: S-9, Method: STANDARD PLATE", "value": "inactive; negative"}, {"measurement": "mutagenic call", "setting": "Test System: AMES SALMONELLA TYPHIMURIUM, Strain/Indicator: TA1535, Metabolic Activation: NONE, Method: PREINCUBATION", "value": "inactive; negative"}, {"measurement": "mutagenic call", "setting": "Test System: AMES SALMONELLA TYPHIMURIUM, Strain/Indicator: TA1535, Metabolic Activation: RAT, LIVER, S-9, AROCLOR 1254, Method: PREINCUBATION", "value": "inactive; negative"}, {"measurement": "mutagenic call", "setting": "Test System: AMES SALMONELLA TYPHIMURIUM, Strain/Indicator: TA1535, Metabolic Activation: RAT, LIVER, S-9, AROCLOR 1254, Method: STANDARD PLATE", "value": "active; positive"}, {"measurement": "mutagenic call", "setting": "Test System: AMES SALMONELLA TYPHIMURIUM, Strain/Indicator: TA1537, Metabolic Activation: HAMSTER, LIVER, S-9, AROCLOR 1254, Method: PREINCUBATION", "value": "inactive; negative"}, {"measurement": "mutagenic call", "setting": "Test System: AMES SALMONELLA TYPHIMURIUM, Strain/Indicator: TA1537, Metabolic Activation: NONE, Method: PREINCUBATION", "value": "inactive; negative"}, {"measurement": "mutagenic call", "setting": "Test System: AMES SALMONELLA TYPHIMURIUM, Strain/Indicator: TA1537, Metabolic Activation: RAT LIVER S-9, PHENOBARBITAL AND BETA-NAPHTHOFLAVONE, Method: PREINCUBATION", "value": "inactive; negative"}, {"measurement": "mutagenic call", "setting": "Test System: AMES SALMONELLA TYPHIMURIUM, Strain/Indicator: TA1537, Metabolic Activation: RAT, LIVER, S-9, AROCLOR 1254, Method: PREINCUBATION", "value": "inactive; negative"}, {"measurement": "mutagenic call", "setting": "Test System: AMES SALMONELLA TYPHIMURIUM, Strain/Indicator: TA1538, Metabolic Activation: HAMSTER, LIVER, S-9, Method: STANDARD PLATE", "value": "active; positive"}, {"measurement": "mutagenic call", "setting": "Test System: AMES SALMONELLA TYPHIMURIUM, Strain/Indicator: TA1538, Metabolic Activation: RAT, LIVER, S-9, AROCLOR 1254, Method: STANDARD PLATE", "value": "active; positive"}, {"measurement": "mutagenic call", "setting": "Test System: AMES SALMONELLA TYPHIMURIUM, Strain/Indicator: TA1538, Metabolic Activation: RAT, LIVER, S-9, PHENOBARBITAL, Method: STANDARD PLATE", "value": "active; positive"}, {"measurement": "mutagenic call", "setting": "Test System: Ames Salmonella typhimurium, Strain/Indicator: TA98, Metabolic Activation: Rat, Liver, S-9, Sodium phenobarbitone, Method: Preincubation", "value": "active; positive, test conducted under both aerobic and anaerobic conditions."}, {"measurement": "mutagenic call", "setting": "Test System: Ames Salmonella typhimurium, Strain/Indicator: TA102, Metabolic Activation: None, Method: Preincubation", "value": "inactive; negative"}, {"measurement": "mutagenic call", "setting": "Test System: Ames Salmonella typhimurium, Strain/Indicator: TA102, Metabolic Activation: Rat, Liver, S-9, Aroclor 1254, 4%, Method: Preincubation", "value": "active; positive"}, {"measurement": "mutagenic call", "setting": "Test System: Ames Salmonella typhimurium, Strain/Indicator: TA1538, Metabolic Activation: Rat, Liver, S-9, Sodium phenobarbitone, Method: Preincubation", "value": "active; positive, test conducted under both aerobic and anaerobic conditions."}, {"measurement": "mutagenic call", "setting": "Test System: MOUSE LYMPHOMA, Strain/Indicator: L5178Y (TK+/TK-), Metabolic Activation: NONE, Method: SUSPENSION/PLATE", "value": "active; positive"}, {"measurement": "mutagenic call", "setting": "Test System: MOUSE LYMPHOMA, Strain/Indicator: L5178Y (TK+/TK-), Metabolic Activation: RAT, LIVER, S-9, AROCLOR 1254, Method: SUSPENSION/PLATE", "value": "active; positive"}, {"measurement": "mutagenic call", "setting": "Test System: UDS HUMAN CELLS, Strain/Indicator: THY INCORP (NON-S-PHASE), Metabolic Activation: RAT, LIVER, S-9, PHENOBARBITAL, Method: LIQUID SCINTILLATION COUNTING", "value": "active; positive"}]}, {"smiles": "Oc1ccc(Cc2ccc(O)cc2)cc1", "values": [{"measurement": "mutagenic call", "setting": "End Point: In vitro micronucleus, Test System: HepG2 cells, Metabolic Activation: None", "value": "inactive; negative"}, {"measurement": "mutagenic call", "setting": "Test System: Ames Salmonella typhimurium, Strain/Indicator: TA98, Metabolic Activation: None, Method: Preincubation", "value": "inactive; negative"}, {"measurement": "mutagenic call", "setting": "Test System: Ames Salmonella typhimurium, Strain/Indicator: TA98, Metabolic Activation: Rat, Liver, S-9, Aroclor 1254, Method: Preincubation", "value": "inactive; negative"}, {"measurement": "mutagenic call", "setting": "Test System: Ames Salmonella typhimurium, Strain/Indicator: TA100, Metabolic Activation: None, Method: Preincubation", "value": "inactive; negative"}, {"measurement": "mutagenic call", "setting": "Test System: Ames Salmonella typhimurium, Strain/Indicator: TA100, Metabolic Activation: Rat, Liver, S-9, Aroclor 1254, Method: Preincubation", "value": "inactive; negative"}, {"measurement": "mutagenic call", "setting": "Test System: Ames Salmonella typhimurium, Strain/Indicator: TA1535, Metabolic Activation: None, Method: Preincubation", "value": "inactive; negative"}, {"measurement": "mutagenic call", "setting": "Test System: Ames Salmonella typhimurium, Strain/Indicator: TA1535, Metabolic Activation: Rat, Liver, S-9, Aroclor 1254, Method: Preincubation", "value": "inactive; negative"}, {"measurement": "mutagenic call", "setting": "Test System: Ames Salmonella typhimurium, Strain/Indicator: TA1537, Metabolic Activation: None, Method: Preincubation", "value": "inactive; negative"}, {"measurement": "mutagenic call", "setting": "Test System: Ames Salmonella typhimurium, Strain/Indicator: TA1537, Metabolic Activation: Rat, Liver, S-9, Aroclor 1254, Method: Preincubation", "value": "inactive; negative"}, {"measurement": "mutagenic call", "setting": "Test System: E. coli, Strain/Indicator: W2 uvrA pKM101, Metabolic Activation: None, Method: Preincubation", "value": "inactive; negative"}, {"measurement": "mutagenic call", "setting": "Test System: E. coli, Strain/Indicator: W2 uvrA pKM101, Metabolic Activation: Rat, Liver, S-9, Aroclor 1254, Method: Preincubation", "value": "inactive; negative"}]}]}
